In assay [1] the target is T1, SARS-CoV-2 PLpro (nsp3 1564–1878) (Severe acute respiratory syndrome coronavirus 2, UniProt P0DTD1). In words: biochemical. The arrangement: FRET-quenched peptide (Pro3) cleavage by PLpro, 10 min pre-incubation, slope over 20 min, normalised to no-compound control. Conditions: high concentration screen, read-out: % of control remaining.
In assay [2] the target is T1, SARS-CoV-2 PLpro (nsp3 1564–1878). In words: biochemical. Set-up: FRET-quenched peptide (Pro3) cleavage by PLpro, 10 min pre-incubation, slope over 20 min, normalised to no-compound control. Conditions: low concentration screen, read-out: % of control remaining.

Structures can show the parent of a compound that is named as a salt. Where two headings read alike, the source gives them in different places.

As to `CN(C)CCC[C@@]1(c2ccc(F)cc2)OCc2cc(C#N)ccc21` [Escitalopram], the remaining activity at 3.75 µM in assay [1] (Well no.=1880) was determined as 94.3%. Further, the remaining activity at 1.25 µM in assay [2] (Well no.=1880) came out at 95.4%.
In the case of `O=c1ccc2cc(O)c(O)cc2o1` [Esculetin], in assay [1] (Well no.=3988), the remaining activity at 3.75 µM is 98.6%. In addition, in assay [2] (Well no.=3988), the remaining activity at 1.25 µM amounted to 101%.
As to `COC(=O)CCc1ccc(OCC(O)CNC(C)C)cc1` (stereo not shown) [Esmolol (hydrochloride)], in assay [1] (Well no.=6651), the remaining activity at 3.75 µM came to 107%. Also, the remaining activity at 1.25 µM in assay [2] (Well no.=6651) turned out to be 105%.
Take `COC(=O)CCc1ccc(OCC(O)CNC(C)C)cc1` (stereo not shown) [Esmolol]: the remaining activity at 3.75 µM in assay [1] (Well no.=2286) was found to be 96.8%. Also, the remaining activity at 1.25 µM in assay [2] (Well no.=2286) turned out to be 96.3%.
Regarding `COc1ccc2[nH]c([S@@+]([O-])Cc3ncc(C)c(OC)c3C)nc2c1` [Esomeprazole], the remaining activity at 3.75 µM in assay [1] (Well no.=2032) was 106%. Moreover, the remaining activity at 1.25 µM in assay [2] (Well no.=2032) is 108%.
Turning to `C[C@]12CC[C@@H]3c4ccc(OC(=O)c5ccccc5)cc4CC[C@H]3[C@@H]1CC[C@@H]2O` [Estradiol Benzoate], the remaining activity at 3.75 µM in assay [1] (Well no.=5134) stood at 104%. The remaining activity at 1.25 µM in assay [2] (Well no.=5134) was 105%.
Regarding `CCCCC(=O)O[C@H]1CC[C@H]2[C@@H]3CCc4cc(O)ccc4[C@H]3CC[C@]12C` [Estradiol valerate], the remaining activity at 3.75 µM in assay [1] (Well no.=5365) was 99.5%. The remaining activity at 1.25 µM in assay [2] (Well no.=5365) worked out at 95.5%.
On to `C[C@]12CC[C@@H]3c4ccc(O)cc4CC[C@H]3[C@@H]1CC[C@@H]2O` [Estradiol], for which the remaining activity at 3.75 µM in assay [1] (Well no.=2034) was 96.6%; in assay [1] (Well no.=6449), 101%. The remaining activity at 1.25 µM in assay [2] (Well no.=2034) was 99.3%; in assay [2] (Well no.=6449), 98.6%.
As to `C[C@]12CC[C@@H]3c4ccc(O)cc4CC[C@H]3[C@@H]1C[C@@H](O)[C@@H]2O` [Estriol], the remaining activity at 3.75 µM in assay [1] (Well no.=2036) was 104%; in assay [1] (Well no.=6489) it was 108%. Further, the remaining activity at 1.25 µM in assay [2] (Well no.=2036) was found to be 105%; in assay [2] (Well no.=6489), 104%.
On to `C[C@]12CC[C@@H]3c4ccc(O)cc4CC[C@H]3[C@@H]1CCC2=O` [Estrone], for which the remaining activity at 3.75 µM in assay [1] (Well no.=559) stood at 98.9%; in assay [1] (Well no.=2038), 104%; in assay [1] (Well no.=6445), 96%. For the same molecule, the remaining activity at 1.25 µM in assay [2] (Well no.=559) worked out at 101%; in assay [2] (Well no.=2038), 103%; in assay [2] (Well no.=6445), 102%.
As to `CCOC(=O)c1cnc2c(cnn2CC)c1NN=C(C)C` [Etazolate hydrochloride], the remaining activity at 3.75 µM in assay [1] (Well no.=550) came to 103%. The remaining activity at 1.25 µM in assay [2] (Well no.=550) amounted to 101%.
`CCOC(=O)c1cnc2c(cnn2CC)c1NN=C(C)C` [Etazolate]: the remaining activity at 3.75 µM in assay [1] (Well no.=2144) worked out at 97.1%. The remaining activity at 1.25 µM in assay [2] (Well no.=2144) amounted to 93.8%.
As for `C=C(CC)C(=O)c1ccc(OCC(=O)O)c(Cl)c1Cl` [Ethacrynic Acid], the remaining activity at 3.75 µM in assay [1] (Well no.=1865) stood at 94.6%. In assay [2] (Well no.=1865), the remaining activity at 1.25 µM came to 95.6%.
For `CC[C@@H](CO)NCCN[C@@H](CC)CO` [Ethambutol HCl], the remaining activity at 3.75 µM in assay [1] (Well no.=5072) amounted to 100%. The remaining activity at 1.25 µM in assay [2] (Well no.=5072) stood at 99.5%.
With `O=S(=O)(O)c1cc(O)ccc1O` [Ethamsylate], in assay [1] (Well no.=6763), the remaining activity at 3.75 µM turned out to be 89.6%. For the same molecule, the remaining activity at 1.25 µM in assay [2] (Well no.=6763) stood at 103%.
As to `C#C[C@]1(O)CC[C@H]2[C@@H]3CCc4cc(O)ccc4[C@H]3CC[C@@]21C` [Ethinyl Estradiol], the remaining activity at 3.75 µM in assay [1] (Well no.=5333) was determined as 98.6%. Moreover, the remaining activity at 1.25 µM in assay [2] (Well no.=5333) came to 98.9%.
Take `CCc1cc(C(N)=S)ccn1` [Ethionamide]: the remaining activity at 3.75 µM in assay [1] (Well no.=5347) amounted to 95.4%. For the same molecule, in assay [2] (Well no.=5347), the remaining activity at 1.25 µM was 96.4%.
In the case of `C#C[C@]1(O)CC[C@H]2[C@@H]3CCC4=CC(=O)CC[C@]4(C)[C@H]3CC[C@@]21C` [Ethisterone], the remaining activity at 3.75 µM in assay [1] (Well no.=2030) was 101%. The remaining activity at 1.25 µM in assay [2] (Well no.=2030) was 101%.
On to `CCC1(C)CC(=O)NC1=O` (stereo not shown) [Ethosuximide], for which the remaining activity at 3.75 µM in assay [1] (Well no.=653) came to 97.7%. For the same molecule, in assay [2] (Well no.=653), the remaining activity at 1.25 µM was found to be 96.4%.
Regarding `CCOc1ccc2c(c1)C(C)=CC(C)(C)N2` [Ethoxyquin], the remaining activity at 3.75 µM in assay [1] (Well no.=4145) worked out at 96.9%. The remaining activity at 1.25 µM in assay [2] (Well no.=4145) is 93.7%.
`CCC(C(=O)O)C(=O)O` [Ethylmalonic acid]: the remaining activity at 3.75 µM in assay [1] (Well no.=6875) was 93.4%. Moreover, the remaining activity at 1.25 µM in assay [2] (Well no.=6875) came out at 94.5%.
`C#C[C@]1(OC(C)=O)CC[C@H]2[C@@H]3CCC4=C[C@@H](OC(C)=O)CC[C@@H]4[C@H]3CC[C@@]21C` [Ethynodiol diacetate]: in assay [1] (Well no.=5373), the remaining activity at 3.75 µM came out at 92.2%. The remaining activity at 1.25 µM in assay [2] (Well no.=5373) was found to be 92.3%.
For the molecule `C#C[C@]1(O)CC[C@H]2[C@@H]3CCc4cc(O)ccc4[C@H]3CC[C@@]21C` [Ethynyl Estradiol], in assay [1] (Well no.=6487), the remaining activity at 3.75 µM was determined as 102%. Besides, the remaining activity at 1.25 µM in assay [2] (Well no.=6487) came out at 103%.
`CC(O)(P(=O)(O)O)P(=O)(O)O` [Etidronate]: the remaining activity at 3.75 µM in assay [1] (Well no.=2068) came to 97.5%; in assay [1] (Well no.=8826), 87.6%. Further, the remaining activity at 1.25 µM in assay [2] (Well no.=2068) stood at 96.4%; in assay [2] (Well no.=8826) it was 85.3%.
Turning to `CCNC1=Nc2ccc(Cl)cc2C(C)(c2ccccc2)O1` (stereo not shown) [Etifoxine hydrochloride], the remaining activity at 3.75 µM in assay [1] (Well no.=6081) was 104%. Also, the remaining activity at 1.25 µM in assay [2] (Well no.=6081) turned out to be 106%.
As for `CCc1cccc2c3c([nH]c12)C(CC)(CC(=O)O)OCC3` (stereo not shown) [Etodolac], in assay [1] (Well no.=740), the remaining activity at 3.75 µM stood at 97.9%. Further, in assay [2] (Well no.=740), the remaining activity at 1.25 µM worked out at 95.3%.
With `CCOC(=O)c1cncn1[C@H](C)c1ccccc1` [Etomidate], in assay [1] (Well no.=5187), the remaining activity at 3.75 µM is 101%. Moreover, the remaining activity at 1.25 µM in assay [2] (Well no.=5187) was found to be 100%.
For `COc1cc([C@@H]2c3cc4c(cc3[C@@H](O[C@@H]3O[C@@H]5CO[C@@H](C)O[C@H]5[C@H](O)[C@H]3O)[C@H]3COC(=O)[C@H]23)OCO4)cc(OC)c1O` [Etoposide], the remaining activity at 3.75 µM in assay [1] (Well no.=454) was 97.1%; in assay [1] (Well no.=1670), 99.3%; in assay [1] (Well no.=3279), 102%; in assay [1] (Well no.=6154), 103%. Moreover, the remaining activity at 1.25 µM in assay [2] (Well no.=454) was found to be 103%; in assay [2] (Well no.=1670), 99.8%; in assay [2] (Well no.=6154), 102%.
For the molecule `Cc1ccc(-c2ncc(Cl)cc2-c2ccc(S(C)(=O)=O)cc2)cn1` [Etoricoxib], in assay [1] (Well no.=1925), the remaining activity at 3.75 µM was determined as 106%. Further, the remaining activity at 1.25 µM in assay [2] (Well no.=1925) stood at 106%.

The values above are taken from article PMC8286840, “Identifying SARS-CoV-2 antiviral compounds by screening for small molecule inhibitors of Nsp3 papain-like protease” (Biochemical Journal, 2021).
